Measurements taken from patent publication US20050064507A1, “Determining kinase specificity” (priority 2003, published 2005).

Columns and labels:
AKT1 = target: T1, AKT1 (Homo sapiens, UniProt P31749); experiment: In vitro kinase assay: peptide phosphorylation by AKT1; format: biochemical; details: normalized to best substrate
T1 construct: purchased Panvera
Experimental: (§1) Catalytically active preparations of the kinases of interest were either purchased or prepared. Purchased and tested active kinase preparations including the following: PKC-alpha, PKC-delta, PKC-epsilon, PKC-zeta, PKC-mu, PKA, PKG from Calbiochem, ROK alpha/ROCK-II, active from Upstate Biotechnology, and AKT1 from Panvera.
(§2) The conditions of the kinase assay and the amount of active kinase used varied with the kinase and with the accuracy needed. For a typical experiment, 5-20 ng of kinase was used per well and each peptide pool was assayed in duplicate wells. Note that the absolute amount of kinase used was not usually a critical parameter, because the desired information related to specificity of the kinase not its absolute activity, and robustness of the assay depends on comparisons of the same amount of kinase on different peptides. The combination of kinase concentration and assay duration was modified to assure that the stoichiometry of peptide phosphorylation never exceeded 5%. The choice of kinase buffer depended on the kinase being analyzed. For studies of PKC, 100 mM HEPES, 0.05% Triton-X100, 1 mM CaCl2, 20 mM MgCl2, 0.2 mg/ml phosphatidyl serine (Avanti Polar Lipids), PMA 100 ng/ml was typically used. The lipid stock was prepared by transferring 3 mg phosphatidyl serine into iced mixture of 450 μl water plus 50 μl of 10% Triton-X100, sonicating 10 times on ice for 1 sec each.
(§3) The kinase reaction mixture was assembled by sequential addition to a tube held on ice of: 5 μl peptide (100 μM for final concentration of 10 μM), 15 μl of kinase (typically 5 ng/well, in appropriate kinase buffer), 30 μl of ATP (1 uCi/well of ^32P-gamma ATP in a stock of 167 μM cold ATP in the kinase buffer; for final concentration for 100 μM ATP). The mixture was rapidly warmed to desired reaction temperature (30° C. for PKC) and incubated for the desired duration (usually 10 minutes). The kinase assay was terminated by transfer to 4° C. water batch, and rapid addition of an equal volume (50 μl) of stop solution [0.1M ATP+0.1M EDTA in water, pH 8].
(§4) The peptides were then captured from the reaction mixture by transfer to a Reacti-Bind Streptavidin High Binding Capacity Coated Plates (HBC) (Pierce Biotechnology) as follows. The HBC plates were pre-rinsed three times with PBS/Tween PBS/Tween20 0.05% (PBS/Tween). Part of all of the reaction mixture was then transferred wells of a HBC plate pre-filled with 90 μl of phosphate-buffered saline (PBS); typically each aliquots of each phosphorylation reaction were transferred to duplicate HBC plates to assure accuracy by additional replication
(§5) For kinase assays done at the standard peptide concentration of 10 μM, the peptide concentration in the reaction mixture becomes 5 μM after addition of the stop solution; consequently 10 μl of the reaction (50 pMoles of peptide) was transferred to the HBC plate. More generally, the amount of reaction mixture transferred was estimated to be about 50 pMoles of peptide. […] The HBC plates were incubated for 0.5 to 1.5 hr at room temperature for complete binding of biotinylated peptides to plate-bound streptavidin. The HBC plates were then washed extensively with PBS/Tween. Five washes were done routinely and additional wash steps were added if the wash solution removed from the plate had measurable radioactivity as detected using a Geiger counter. This step is essential to obtaining a good the signal to noise ratio because the fraction of radioactivity incorporated in the peptides was a tiny fraction of the total in the reaction mixture. The wells were air-dried. A volume of 40-50 μl of microScint-20 (Packard Instruments) was added to each well. The plates were covered with stick-on film sheet. Radioactive emissions were measured in a TopCount NXT Microplate Scintillation and Luminescence Counter (Packard Instruments). Typically samples were counted for 5 minutes (or more) to improve the signal to noise ratio when counts were low. […]

PKC-delta = target: T2, PKC-delta (Homo sapiens, UniProt Q05655); experiment: In vitro kinase assay: peptide phosphorylation by PKC-delta; format: biochemical;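 as to PKC delta phosphorylation: peptide concentration 10 nM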
T2 construct: purchased Calbiochem
How it was run: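 Biotin-Lys-dansyl-Lys-Pro-Pro-Gly-linked proteomic peptides (12–21-residue core) phosphorylated by PKC-delta in HEPES/Triton/CaCl2/MgCl2 buffer with phosphatidyl serine and PMA, 100 μM [γ-32P]ATP, 30° C., ~10 min, stoichiometry ≤5%; streptavidin-plate capture. Signal normalized as % of best peptide substrate.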

PKA = target: T3, PKA (Homo sapiens, UniProt P17612); experiment: In vitro kinase assay: peptide phosphorylation by PKA; format: biochemical; details: normalized to best substrate
T3 construct: purchased Calbiochem
Experimental: as §1, §2, §3, §4, §5

pPKC Ab = pPKC Ab binding to peptides phosphorylated in vitro by PKC-theta; details: for pPKC Ab Signal on peptide after exposure to PKC-theta phosphorylation: 30 minutes at 30° C. then overnight at 4° C.; for pPKC Ab Signal amount dependent on PKC phosphorylation: difference after minus without exposure
Experimental: Synthetic peptides chosen from those shown in Table 4 were subjected to phosphorylation by PKC-theta, Assay conditions were similar to those described herein, except that the phosphorylation reaction was for 30 minutes at 30° C. and then overnight at 4° C. The reaction mixture was applied to HB avidin-coated plates, the plates washed, and then pPKC Ab binding assayed.

T2 sequence (Q05655 whole entry): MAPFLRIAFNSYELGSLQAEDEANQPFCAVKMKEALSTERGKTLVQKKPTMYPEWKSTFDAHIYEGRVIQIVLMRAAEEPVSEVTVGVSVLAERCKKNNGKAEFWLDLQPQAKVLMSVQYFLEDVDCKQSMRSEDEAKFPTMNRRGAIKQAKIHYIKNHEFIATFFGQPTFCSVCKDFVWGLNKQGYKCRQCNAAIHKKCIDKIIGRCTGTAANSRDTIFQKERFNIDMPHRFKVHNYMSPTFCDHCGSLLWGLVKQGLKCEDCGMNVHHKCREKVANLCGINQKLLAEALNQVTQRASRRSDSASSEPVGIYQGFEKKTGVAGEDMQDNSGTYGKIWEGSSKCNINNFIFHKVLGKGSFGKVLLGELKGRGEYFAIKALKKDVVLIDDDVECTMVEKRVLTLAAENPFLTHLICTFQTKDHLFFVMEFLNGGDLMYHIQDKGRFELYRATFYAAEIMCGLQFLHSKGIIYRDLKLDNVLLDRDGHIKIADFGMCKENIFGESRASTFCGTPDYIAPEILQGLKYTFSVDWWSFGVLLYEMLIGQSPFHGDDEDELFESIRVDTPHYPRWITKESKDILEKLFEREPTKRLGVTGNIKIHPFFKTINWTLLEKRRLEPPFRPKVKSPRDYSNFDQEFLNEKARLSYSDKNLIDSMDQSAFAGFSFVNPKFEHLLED
T1 sequence (P31749 whole entry, species assumed): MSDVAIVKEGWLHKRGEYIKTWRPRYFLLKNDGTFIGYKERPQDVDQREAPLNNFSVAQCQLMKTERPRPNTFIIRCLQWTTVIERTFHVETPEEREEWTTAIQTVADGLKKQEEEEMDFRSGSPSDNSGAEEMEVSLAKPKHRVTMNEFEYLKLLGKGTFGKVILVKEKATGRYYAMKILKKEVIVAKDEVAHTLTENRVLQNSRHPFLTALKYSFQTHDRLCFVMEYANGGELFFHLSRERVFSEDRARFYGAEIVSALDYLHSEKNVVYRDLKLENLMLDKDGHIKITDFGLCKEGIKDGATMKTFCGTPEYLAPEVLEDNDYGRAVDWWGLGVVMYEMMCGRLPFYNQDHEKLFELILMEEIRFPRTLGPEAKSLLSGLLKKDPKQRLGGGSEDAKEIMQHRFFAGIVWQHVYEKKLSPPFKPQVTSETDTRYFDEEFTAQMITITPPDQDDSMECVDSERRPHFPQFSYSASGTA

Substance | AKT1 phosphorylation (AKT1) | PKC delta phosphorylation (PKC-delta; normalized to best substrate) | PKA phosphorylation (PKA) | pPKC Ab Signal on peptide without exposure to PKC-theta (pPKC Ab) | pPKC Ab Signal on peptide after exposure to PKC-theta phosphorylation (pPKC Ab) | pPKC Ab Signal amount dependent on PKC phosphorylation (pPKC Ab) | phosphorylation by PKC-delta (PKC-delta; peptide concentration 1 uM) | phosphorylation by PKC-delta (PKC-delta; peptide concentration 10 uM)
76 (HVRRRRGTFKRSKLRARD) [compound 76] | 100% | 100% | 69% | 0.07 | 1.02 | 0.95 | – | –
121 (LRRRSLRRSNSISKSPGP) [compound 121] | – | – | – | 0.02 | 1.13 | 1.11 | 80 | 53
